Values of other authors as cited in patent US20120046368A1, “METHOD FOR PURIFYING 3,4-DIHYDROXYPHENYLGLYCOL (DHPG) FROM PLANT PRODUCTS” (CONSEJO SUPERIOR DE INVESTIGACIONES CIENTIFICAS, priority 2008, published 2012).

Legend:
[1] = fold greater than ascorbic acid or HT
[2] = compared with HT

OCC(O)c1ccc(O)c(O)c1 (centres unmarked) [DHPG, 3,4-dihydroxyphenylglycol]
antioxidant efficacy in water relative to ascorbic acid or HT [1]: 2-3 times
antioxidant efficacy in a lipid medium relative to HT [2]: twice that of HT
